From the NIST ThermoML archive (doi:10.1016/j.jct.2006.09.001)
Where “and” joins values, the source holds several entries; their conditions need not be identical. Equal entries are not always repeated. ± gives the expanded uncertainty stated by the source.

Assays:
[1] = Molar enthalpy of transition or fusion; conditions: Crystal; DSC
[2] = for Normal melting temperature: DTA

OC[c-]1cccc1.[Fe+2].c1cc[cH-]c1 [(hydroxymethyl)ferrocene]
Conditions | Molar enthalpy of transition or fusion [kcal/mol]
[1] | 5.66 ± 0.191

[2]
Conditions | vapor or sublimation pressure
313.3 K, Crystal | 0.00011 ± 1e-05 kPa
316.7 K, Crystal | 0.00015 ± 2e-05 kPa
320.4 K, Crystal | 0.00025 ± 3e-05 kPa
323.3 K, Crystal | 0.00036 ± 4e-05 kPa
327.3 K, Crystal | 0.00056 ± 6e-05 kPa
330.4 K, Crystal | 0.00079 ± 8e-05 kPa and 0.00078 ± 8e-05 kPa
333.7 K, Crystal | 0.00116 ± 0.00012 kPa
333.8 K, Crystal | 0.00111 ± 0.00011 kPa
335.9 K, Crystal | 0.0015 ± 0.00015 kPa
336.2 K, Crystal | 0.00149 ± 0.00015 kPa
339.8 K, Crystal | 0.00218 ± 0.00022 kPa
341.1 K, Crystal | 0.00254 ± 0.00026 kPa
342 K, Crystal | 0.0029 ± 0.0003 kPa
343.3 K, Crystal | 0.00329 ± 0.00034 kPa
346 K, Crystal | 0.00416 ± 0.00042 kPa
347.3 K, Crystal | 0.00468 ± 0.00048 kPa
347.4 K, Crystal | 0.00492 ± 0.0005 kPa
353.2 K, Liquid | 0.00788 ± 0.0008 kPa
355.2 K, Liquid | 0.00938 ± 0.00095 kPa
357.3 K, Liquid | 0.0104 ± 0.001 kPa
358.9 K, Liquid | 0.01181 ± 0.0012 kPa
359.6 K, Liquid | 0.01286 ± 0.0013 kPa
361.6 K, Liquid | 0.01452 ± 0.0015 kPa
363.4 K, Liquid | 0.01668 ± 0.0017 kPa
364.7 K, Liquid | 0.01879 ± 0.0019 kPa
366.1 K, Liquid | 0.02236 ± 0.0023 kPa
366.5 K, Liquid | 0.02159 ± 0.0022 kPa
368.9 K, Liquid | 0.02708 ± 0.0027 kPa
369 K, Liquid | 0.02499 ± 0.0025 kPa
370.5 K, Liquid | 0.02709 ± 0.0027 kPa
371.8 K, Liquid | 0.03178 ± 0.0032 kPa
372.5 K, Liquid | 0.03208 ± 0.0033 kPa
374 K, Liquid | 0.03745 ± 0.0038 kPa
375.6 K, Liquid | 0.03813 ± 0.0039 kPa
377 K, Liquid | 0.04507 ± 0.0046 kPa
379.7 K, Liquid | 0.05509 ± 0.0056 kPa
383.7 K, Liquid | 0.06949 ± 0.007 kPa
385 K, Liquid | 0.07524 ± 0.0076 kPa
386.8 K, Liquid | 0.08377 ± 0.0084 kPa
389.6 K, Liquid | 0.09595 ± 0.0097 kPa
393.7 K, Liquid | 0.1301 ± 0.013 kPa

Conditions | Normal melting temperature [°C]
[2], Crystal | 79.1 ± 0.7

O=C(c1ccccc1)c1ccc[cH-]1.[Fe+2].c1cc[cH-]c1 [benzoylferrocene]
Conditions | Molar enthalpy of transition or fusion [kcal/mol]
[1] | 7.15 ± 0.167

[2], Transpiration method
Conditions | vapor or sublimation pressure [kPa]
342.3 K, Crystal | 2.2e-05 ± 1e-06
347.2 K, Crystal | 3.8e-05 ± 2e-06
350.2 K, Crystal | 5.3e-05 ± 3e-06
350.9 K, Crystal | 5.8e-05 ± 3e-06
353 K, Crystal | 7.5e-05 ± 4e-06
356 K, Crystal | 9.7e-05 ± 5e-06
357.8 K, Crystal | 0.000123 ± 7e-06
360.3 K, Crystal | 0.000164 ± 9e-06
363 K, Crystal | 0.00021 ± 1.1e-05
364 K, Crystal | 0.000246 ± 1.4e-05
366.4 K, Crystal | 0.000313 ± 1.7e-05
370 K, Crystal | 0.000441 ± 2.4e-05
371.7 K, Crystal | 0.000553 ± 3.1e-05
373.6 K, Crystal | 0.000674 ± 3.7e-05
377.3 K, Crystal | 0.000963 ± 5.2e-05
379.3 K, Crystal | 0.001207 ± 6.5e-05
384 K, Liquid | 0.00187 ± 0.0001
386.2 K, Liquid | 0.00223 ± 0.00012
389.1 K, Liquid | 0.0027 ± 0.00014
392.4 K, Liquid | 0.00338 ± 0.00018
396 K, Liquid | 0.00428 ± 0.00022
397.9 K, Liquid | 0.00488 ± 0.00025
402 K, Liquid | 0.00618 ± 0.00035
402.6 K, Liquid | 0.00664 ± 0.00034
404.8 K, Liquid | 0.00742 ± 0.00039
408.8 K, Liquid | 0.00977 ± 0.0005
408.9 K, Liquid | 0.00961 ± 0.00049
410.6 K, Liquid | 0.01054 ± 0.00054
413.6 K, Liquid | 0.01254 ± 0.00065
416.8 K, Liquid | 0.01548 ± 0.0008
419.7 K, Liquid | 0.01891 ± 0.00097
423.3 K, Liquid | 0.02256 ± 0.0012
426.6 K, Liquid | 0.02806 ± 0.0014
429.6 K, Liquid | 0.03229 ± 0.0016

Conditions | Normal melting temperature [°C]
[2], Crystal | 109.5 ± 0.5

[Fe+2].c1cc[cH-]c1.c1ccc(C[c-]2cccc2)cc1 [benzylferrocene]
Conditions | Molar enthalpy of transition or fusion [kcal/mol]
[1] | 5.66 ± 0.12

[2], Crystal
Conditions | vapor or sublimation pressure [kPa]
311.7 K | 1.2e-05 ± 2e-06
313 K | 1.3e-05 ± 2e-06
318 K | 2.7e-05 ± 3e-06
323.3 K | 5.2e-05 ± 6e-06
325.1 K | 6.4e-05 ± 7e-06
325.3 K | 6.5e-05 ± 7e-06
327.2 K | 8.6e-05 ± 9e-06
331.3 K | 0.000132 ± 1.5e-05
331.9 K | 0.000152 ± 1.6e-05
333.3 K | 0.00017 ± 1.8e-05
335.9 K | 0.000236 ± 2.4e-05
338.4 K | 0.000303 ± 3.2e-05
338.9 K | 0.000323 ± 3.3e-05
341.3 K | 0.000442 ± 4.6e-05

[2], Liquid, Transpiration method
Conditions | vapor or sublimation pressure [kPa]
350.7 K | 0.00111 ± 6e-05
352.9 K | 0.00129 ± 7e-05
356.9 K | 0.00181 ± 0.0001
361 K | 0.00247 ± 0.00013
365 K | 0.00332 ± 0.00017
369 K | 0.0046 ± 0.00024
373.1 K | 0.00602 ± 0.00031
377.1 K | 0.0082 ± 0.00043

Conditions | Normal melting temperature [°C]
[2], Crystal | 76.1 ± 0.7

[CH]1C=CC=C1.[CH]1C=CC=C1.[Fe] [ferrocene]
Conditions | Molar enthalpy of transition or fusion [kcal/mol]
[1] | 4.37 ± 0.143

[2], Crystal, Transpiration method
Conditions | vapor or sublimation pressure
289.7 K | 0.00041 ± 3e-05 kPa
299.6 K | 0.00116 ± 6e-05 kPa
303.5 K | 0.00169 ± 9e-05 kPa
303.6 K | 0.00172 ± 9e-05 kPa
307.5 K | 0.00249 ± 0.00014 kPa
312.5 K | 0.00388 ± 0.00021 kPa
317.6 K | 0.00605 ± 0.00033 kPa
322.6 K | 0.00945 ± 0.00051 kPa
322.7 K | 0.00932 ± 0.0005 kPa
327.6 K | 0.014 ± 0.00075 kPa
332.8 K | 0.02131 ± 0.0011 kPa and 0.02096 ± 0.0011 kPa
337.9 K | 0.03024 ± 0.0016 kPa
342.9 K | 0.04379 ± 0.0023 kPa
348 K | 0.06337 ± 0.0034 kPa
353.1 K | 0.09205 ± 0.0049 kPa
358.3 K | 0.1334 ± 0.007 kPa
363.4 K | 0.1803 ± 0.0094 kPa

Conditions | Normal melting temperature [°C]
[2], Crystal | 174.7 ± 0.5
